Results reported in PubChem BioAssay (NCI).
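Exposure lasted 48 hours, with cells grown in 96-well plates and compounds tested at five concentrations. TGI marks complete inhibition of growth.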

Legend:
Test in all cases: inhibition of tumour cell growth, NCI panel, 48 h
DMS 273 small cell lung = tested on: DMS 273 small cell lung
SK-MEL-28 melanoma = tested on: SK-MEL-28 melanoma
OVCAR-4 ovarian = tested on: OVCAR-4 ovarian
SN12C renal = tested on: SN12C renal
OVCAR-8 ovarian = tested on: OVCAR-8 ovarian
LOX IMVI melanoma = tested on: LOX IMVI melanoma
SF-268 CNS = tested on: SF-268 CNS
NCI-H226 lung = tested on: NCI-H226 lung
A549 NSCLC = tested on: A549 NSCLC
HCT-15 colon = tested on: HCT-15 colon
K-562 leukemia = tested on: K-562 leukemia
HT29 colon = tested on: HT29 colon
CAKI-1 renal = tested on: CAKI-1 renal
NCI-H522 lung = tested on: NCI-H522 lung
RXF 393 renal = tested on: RXF 393 renal
COLO 205 colon = tested on: COLO 205 colon
KM12 colon = tested on: KM12 colon
HCT-116 colon = tested on: HCT-116 colon
NCI-H23 lung = tested on: NCI-H23 lung
UO-31 renal = tested on: UO-31 renal
KM20L2 colon = tested on: KM20L2 colon
UACC-62 melanoma = tested on: UACC-62 melanoma
SR leukemia = tested on: SR leukemia
SF-539 CNS = tested on: SF-539 CNS
SNB-19 CNS = tested on: SNB-19 CNS
EKVX NSCLC = tested on: EKVX NSCLC
LXFL 529 NSCLC = tested on: LXFL 529 NSCLC
HCC-2998 colon = tested on: HCC-2998 colon
TK-10 renal = tested on: TK-10 renal
RPMI-8226 leukemia = tested on: RPMI-8226 leukemia
SNB-75 CNS = tested on: SNB-75 CNS
HOP-92 NSCLC = tested on: HOP-92 NSCLC
CCRF-CEM leukemia = tested on: CCRF-CEM leukemia
M14 melanoma = tested on: M14 melanoma
SF-295 CNS = tested on: SF-295 CNS
SNB-78 CNS = tested on: SNB-78 CNS
UACC-257 melanoma = tested on: UACC-257 melanoma
HOP-62 NSCLC = tested on: HOP-62 NSCLC
OVCAR-5 ovarian = tested on: OVCAR-5 ovarian
M19-MEL melanoma = tested on: M19-MEL melanoma
A498 renal = tested on: A498 renal
DLD-1 colon = tested on: DLD-1 colon
DMS 114 small cell lung = tested on: DMS 114 small cell lung
MOLT-4 leukemia = tested on: MOLT-4 leukemia
HL-60(TB) leukemia = tested on: HL-60(TB) leukemia
XF 498 CNS = tested on: XF 498 CNS
IGROV1 ovarian = tested on: IGROV1 ovarian
SK-MEL-2 melanoma = tested on: SK-MEL-2 melanoma
SK-OV-3 ovarian = tested on: SK-OV-3 ovarian
SK-MEL-5 melanoma = tested on: SK-MEL-5 melanoma
NCI-H460 lung = tested on: NCI-H460 lung
ACHN renal = tested on: ACHN renal
U251 CNS = tested on: U251 CNS
SW-620 colon = tested on: SW-620 colon
MALME-3M melanoma = tested on: MALME-3M melanoma
OVCAR-3 ovarian = tested on: OVCAR-3 ovarian
HOP-18 NSCLC = tested on: HOP-18 NSCLC

Structure (SMILES): NS(=O)(=O)C1CCCCC1C(=O)NNC(=O)C(=O)Nc1nc(=S)[nH][nH]1 (stereo unspecified)
- TGI (DMS 273 small cell lung): > 100 µM
- TGI (SK-MEL-28 melanoma): > 100 µM
- TGI (OVCAR-4 ovarian): > 100 µM
- TGI (SN12C renal): > 100 µM
- TGI (OVCAR-8 ovarian): > 100 µM
- TGI (LOX IMVI melanoma): > 100 µM
- TGI (SF-268 CNS): > 100 µM
- TGI (NCI-H226 lung): > 100 µM
- TGI (A549 NSCLC): > 100 µM
- TGI (HCT-15 colon): > 100 µM
- TGI (K-562 leukemia): > 100 µM
- TGI (HT29 colon): > 100 µM
- TGI (CAKI-1 renal): > 100 µM
- TGI (NCI-H522 lung): > 100 µM
- TGI (RXF 393 renal): > 100 µM
- TGI (COLO 205 colon): > 100 µM
- TGI (KM12 colon): > 100 µM
- TGI (HCT-116 colon): > 100 µM
- TGI (NCI-H23 lung): > 100 µM
- TGI (UO-31 renal): > 100 µM
- TGI (KM20L2 colon): > 100 µM
- TGI (UACC-62 melanoma): > 100 µM
- TGI (SR leukemia): > 100 µM
- TGI (SF-539 CNS): > 100 µM
- TGI (SNB-19 CNS): > 100 µM
- TGI (EKVX NSCLC): > 100 µM
- TGI (LXFL 529 NSCLC): > 100 µM
- TGI (HCC-2998 colon): > 100 µM
- TGI (TK-10 renal): > 100 µM
- TGI (RPMI-8226 leukemia): > 100 µM
- TGI (SNB-75 CNS): > 100 µM
- TGI (HOP-92 NSCLC): > 100 µM
- TGI (CCRF-CEM leukemia): > 100 µM
- TGI (M14 melanoma): > 100 µM
- TGI (SF-295 CNS): > 100 µM
- TGI (SNB-78 CNS): > 100 µM
- TGI (UACC-257 melanoma): > 100 µM
- TGI (HOP-62 NSCLC): > 100 µM
- TGI (OVCAR-5 ovarian): > 100 µM
- TGI (M19-MEL melanoma): > 100 µM
- TGI (A498 renal): > 100 µM
- TGI (DLD-1 colon): > 100 µM
- TGI (DMS 114 small cell lung): > 100 µM
- TGI (MOLT-4 leukemia): > 100 µM
- TGI (HL-60(TB) leukemia): > 100 µM
- TGI (XF 498 CNS): > 100 µM
- TGI (IGROV1 ovarian): > 100 µM
- TGI (SK-MEL-2 melanoma): > 100 µM
- TGI (SK-OV-3 ovarian): > 100 µM
- TGI (SK-MEL-5 melanoma): > 100 µM
- TGI (NCI-H460 lung): > 100 µM
- TGI (ACHN renal): > 100 µM
- TGI (U251 CNS): > 100 µM
- TGI (SW-620 colon): > 100 µM

Structure (SMILES): Cc1ccc(C)c(C(=O)CC2OC(O)C(Cl)C2Cl)c1 (stereo unspecified)
- TGI (DMS 273 small cell lung): > 100 µM
- TGI (SK-MEL-28 melanoma): > 100 µM
- TGI (OVCAR-4 ovarian): > 100 µM
- TGI (SN12C renal): > 100 µM
- TGI (OVCAR-8 ovarian): 33.6 µM
- TGI (LOX IMVI melanoma): 48.4 µM
- TGI (SF-268 CNS): > 100 µM
- TGI (MALME-3M melanoma): > 100 µM
- TGI (NCI-H226 lung): > 100 µM
- TGI (A549 NSCLC): > 100 µM
- TGI (HCT-15 colon): > 100 µM
- TGI (K-562 leukemia): > 100 µM
- TGI (HT29 colon): > 100 µM
- TGI (CAKI-1 renal): 84.4 µM
- TGI (NCI-H522 lung): 29.4 µM
- TGI (RXF 393 renal): 86 µM
- TGI (COLO 205 colon): > 100 µM
- TGI (KM12 colon): > 100 µM
- TGI (HCT-116 colon): > 100 µM
- TGI (NCI-H23 lung): > 100 µM
- TGI (UO-31 renal): > 100 µM
- TGI (KM20L2 colon): > 100 µM
- TGI (UACC-62 melanoma): > 100 µM
- TGI (OVCAR-3 ovarian): > 100 µM
- TGI (SR leukemia): > 100 µM
- TGI (SF-539 CNS): 53.2 µM
- TGI (SNB-19 CNS): > 100 µM
- TGI (EKVX NSCLC): > 100 µM
- TGI (LXFL 529 NSCLC): 32.5 µM
- TGI (HCC-2998 colon): > 100 µM
- TGI (TK-10 renal): > 100 µM
- TGI (RPMI-8226 leukemia): > 100 µM
- TGI (SNB-75 CNS): > 100 µM
- TGI (HOP-18 NSCLC): > 100 µM
- TGI (HOP-92 NSCLC): 77.3 µM
- TGI (CCRF-CEM leukemia): > 100 µM
- TGI (M14 melanoma): > 100 µM
- TGI (SF-295 CNS): > 100 µM
- TGI (SNB-78 CNS): > 100 µM
- TGI (UACC-257 melanoma): > 100 µM
- TGI (HOP-62 NSCLC): > 100 µM
- TGI (OVCAR-5 ovarian): > 100 µM
- TGI (M19-MEL melanoma): > 100 µM
- TGI (A498 renal): > 100 µM
- TGI (DLD-1 colon): 34.4 µM
- TGI (DMS 114 small cell lung): > 100 µM
- TGI (MOLT-4 leukemia): > 100 µM
- TGI (HL-60(TB) leukemia): 95.7 µM
- TGI (XF 498 CNS): > 100 µM
- TGI (IGROV1 ovarian): > 100 µM
- TGI (SK-MEL-2 melanoma): > 100 µM
- TGI (SK-OV-3 ovarian): > 100 µM
- TGI (SK-MEL-5 melanoma): > 100 µM
- TGI (NCI-H460 lung): > 100 µM
- TGI (ACHN renal): > 100 µM
- TGI (U251 CNS): > 100 µM
- TGI (SW-620 colon): 33.5 µM
